In general, IC50 refers to the concentration at which inhibition is half-maximal.

The results in this text go back to ChEMBL document CHEMBL2218064, “Structure-activity relationship data for chemical series of antagonists of the P2X7 receptor (Supplementary Bioactivity Data for publication CHEMBL1157114)”.

SMILES strings stand for the structures.

For this assay, the target named is T1, P2X purinoceptor 7 (Homo sapiens, UniProt Q99572).
T1 sequence (Q99572 whole entry): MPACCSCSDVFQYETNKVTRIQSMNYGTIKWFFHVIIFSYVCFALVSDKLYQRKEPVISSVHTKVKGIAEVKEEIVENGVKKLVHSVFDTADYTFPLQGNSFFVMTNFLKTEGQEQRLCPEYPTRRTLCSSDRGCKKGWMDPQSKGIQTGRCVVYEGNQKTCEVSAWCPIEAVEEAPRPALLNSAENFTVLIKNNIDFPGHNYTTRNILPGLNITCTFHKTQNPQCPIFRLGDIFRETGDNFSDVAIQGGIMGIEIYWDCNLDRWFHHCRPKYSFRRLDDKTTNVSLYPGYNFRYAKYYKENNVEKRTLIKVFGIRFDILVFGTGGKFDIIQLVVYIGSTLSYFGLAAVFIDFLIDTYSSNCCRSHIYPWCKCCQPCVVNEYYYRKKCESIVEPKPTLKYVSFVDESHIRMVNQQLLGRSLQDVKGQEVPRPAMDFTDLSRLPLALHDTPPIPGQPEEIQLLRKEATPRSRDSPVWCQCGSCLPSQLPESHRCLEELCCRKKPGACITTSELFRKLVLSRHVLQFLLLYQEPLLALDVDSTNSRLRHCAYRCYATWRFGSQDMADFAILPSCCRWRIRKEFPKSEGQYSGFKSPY
Put plainly: SUPPLEMENTARY: Inhibition of human P2X7 receptor assessed as inhibition of ethidium bromide accumulation. Same assay as CHEMBL1103860.
As for `O=C1C(=O)N(c2ccccc2N2CCOCC2)CCN1Cc1ccc(F)cc1Cl`, the 50% inhibitory concentration (IC50) is 126 nM.
`CN1C(=O)N(c2ncccn2)CC1C(=O)NCc1cccc(C(F)(F)F)c1Cl` (stereo not given): the IC50 is 3.16 nM.
`O=C1C(=O)N(c2cccc3cccnc23)CCN1Cc1ccc(F)cc1Cl`: the IC50 was 1000 nM.
`Cc1ccccc1N1CCN(C(C)c2ccc(Cl)cc2Cl)C(=O)C1=O` (stereo not given): the half-inhibitory concentration (IC50) was 31.6 nM.
Take `CN1C(=O)N(C2CCNCC2)CC1C(=O)NCc1cccc(C(F)(F)F)c1Cl` (stereo not given): the IC50 is 31.6 nM.
With `Cn1ncc(I)c1CC(=O)NCc1ccc(Cl)cc1Cl` the figure was 39.8 nM; with `O=C1C(=O)N(c2ccc3c(c2)OCCO3)CCN1Cc1ccc(F)cc1Cl`, 200 nM.
Take `Cc1ccccc1N1CCN(Cc2c(F)cccc2Cl)C(=O)C1=O`: the IC50 was 1000 nM.
Regarding `Cc1ccc(N2CCN(Cc3ccc(F)cc3Cl)C(=O)C2=O)c(C)c1`, the IC50 was 79.4 nM.
In the case of `Cc1ccc(C)c(N2CCN(Cc3ccc(F)cc3Cl)C(=O)C2=O)c1`, the concentration for half-maximal inhibition (IC50) was 7.94 nM.
As for `Cc1ccc(N2CCN(Cc3ccc(F)cc3Cl)C(=O)C2=O)cc1C`, the IC50 was 501 nM.
Turning to `Cc1cc(C)cc(N2CCN(Cc3ccc(F)cc3Cl)C(=O)C2=O)c1`, the IC50 is 1000 nM.
On to `CN1C(=O)N(c2ccccn2)CC1C(=O)NCc1cccc(C(F)(F)F)c1Cl` (stereo not given), for which the IC50 was 7.94 nM.
Regarding `CN1C(=O)N(c2cccnc2)CC1C(=O)NCc1cccc(C(F)(F)F)c1Cl` (stereo not given), the IC50 is 12.6 nM.
As for `Cc1ccccc1N1CCN(Cc2c(C)cc(Cl)cc2Cl)C(=O)C1=O`, the 50% inhibitory concentration (IC50) is 5.01 nM.
Consider `Cc1ccccc1CN1CCN(c2ccccc2C)C(=O)C1=O`, for which the half-inhibitory concentration (IC50) was 501 nM.
Take `Cc1ccccc1N1CCN(Cc2ccc(Cl)cc2)C(=O)C1=O`: the IC50 is 398 nM.
`Cc1ccccc1N1CCN(Cc2cc(Cl)ccc2Cl)C(=O)C1=O`: the IC50 was 1000 nM.
Turning to `Cc1cc(F)ccc1CN1CCN(c2ccccc2C)C(=O)C1=O`, the concentration for half-maximal inhibition (IC50) was 158 nM.
On to `Cc1c(F)cccc1N1CCN(Cc2ccc(F)cc2Cl)C(=O)C1=O`, for which the concentration for half-maximal inhibition (IC50) was 100 nM.
Consider `COc1c(F)cccc1N1CCN(Cc2ccc(F)cc2Cl)C(=O)C1=O`, for which the IC50 is 79.4 nM.
With `Cc1ccc(F)cc1N1CCN(Cc2ccc(F)cc2Cl)C(=O)C1=O` the figure was 39.8 nM; with `Cc1ccc(C(F)(F)F)cc1N1CCN(Cc2ccc(F)cc2Cl)C(=O)C1=O`, 50.1 nM.
`COc1ccc(C)c(N2CCN(Cc3ccc(F)cc3Cl)C(=O)C2=O)c1`: the IC50 was 10 nM.
On to `COc1ccc(F)cc1N1CCN(Cc2ccc(F)cc2Cl)C(=O)C1=O`, for which the IC50 is 100 nM.
`Cc1ccccc1N1CCN(C(=O)c2cccc(Cl)c2Cl)CC1=O`: the IC50 was 15.8 nM.
`N#Cc1c(F)cccc1N1CCN(Cc2ccc(F)cc2Cl)C(=O)C1=O`: the IC50 is 631 nM.
`Cc1ccccc1CN1CCN(c2cccc(Cl)c2Cl)C(=O)C1=O`: the IC50 is 251 nM.
On to `O=C1C(=O)N(c2cccc(Cl)c2Cl)CCN1Cc1ccccc1Cl`, for which the IC50 was 200 nM.
`O=C1C(=O)N(c2cccc(Cl)c2Cl)CCN1Cc1cccc(Cl)c1`: the IC50 was 501 nM.
For `O=C1C(=O)N(c2cccc(Cl)c2Cl)CCN1Cc1ccc(Cl)cc1`, the IC50 is 794 nM.
For `O=C1C(=O)N(c2cccc(Cl)c2Cl)CCN1Cc1ccc(F)cc1Cl`, the IC50 is 100 nM.
As for `Cc1cccc(N2C[C@@H](C(=O)NCc3ccc(F)cc3Cl)N(C)C2=O)n1`, the IC50 is 398 nM.
On to `Cc1ccc(N2C[C@@H](C(=O)NCc3cccc(C(F)(F)F)c3Cl)N(C)C2=O)cn1`, for which the 50% inhibitory concentration (IC50) was 10 nM.
For the compound `Cc1ccc(N2C[C@@H](C(=O)NCc3ccc(F)cc3Cl)N(C)C2=O)cn1`, the concentration for half-maximal inhibition (IC50) is 63.1 nM.
Turning to `O=C1C(=O)N(c2cccc(I)c2)CCN1Cc1ccc(F)cc1Cl`, the IC50 is 398 nM.
As to `Cc1ncccc1N1C[C@@H](C(=O)NCc2ccc(F)cc2Cl)N(C)C1=O`, the IC50 is 50.1 nM.
For `CN1C(=O)NC[C@H]1C(=O)NCc1ccc(F)cc1Cl`, the 50% inhibitory concentration (IC50) was 39.8 nM.
`CN1C(=O)N(c2ccccn2)C[C@H]1C(=O)NCc1cccc(C(F)(F)F)c1Cl`: the concentration for half-maximal inhibition (IC50) was 6.31 nM.
With `CN1C(=O)N(c2ccccn2)C[C@H]1C(=O)NCc1ccc(F)cc1Cl` the figure was 79.4 nM; with `CN1C(=O)N(c2cccnc2)C[C@H]1C(=O)NCc1ccc(F)cc1Cl`, 50.1 nM.
Consider `Cc1cnccc1N1CCN(Cc2ccc(F)cc2Cl)C(=O)C1=O`, for which the 50% inhibitory concentration (IC50) was 501 nM.
Regarding `COc1cccc(N2CCN(Cc3ccc(F)cc3Cl)C(=O)C2=O)c1C`, the IC50 was 25.1 nM.
For `O=C1C(=O)N(c2ccccc2Br)CCN1Cc1ccc(F)cc1Cl`, the half-maximal inhibitory concentration (IC50) was 12.6 nM.
Turning to `Cc1ccccc1N1CCN(C(=O)c2ccc(F)cc2Cl)CC1=O`, the IC50 was 501 nM.
`Cc1cccc(N2CCN(Cc3ccc(F)cc3Cl)C(=O)C2=O)c1N1CCOCC1`: the IC50 is 50.1 nM.
As for `O=C1C(=O)N(c2cccc(Cl)c2N2CCOCC2)CCN1Cc1ccc(F)cc1Cl`, the concentration for half-maximal inhibition (IC50) was 39.8 nM.
The figure for `Cc1ccc(N2CCOCC2)cc1N1CCN(Cc2ccc(F)cc2Cl)C(=O)C1=O` is 31.6 nM; for `Cc1ccc(C)c(N2CCN(Cc3ccc(F)cc3Cl)C(=O)C2=O)n1` it is 200 nM.
With `Cc1ccccc1N1CCN(C(=O)c2ccc(Cl)cc2Cl)CC1=O`, the IC50 was 63.1 nM.
`O=C(c1cccc(Cl)c1Cl)N1CCN(c2ccc(F)cc2)C(=O)C1`: the IC50 was 100 nM.
On to `Cc1c(CN2CCOCC2)cccc1N1CCN(Cc2ccc(F)cc2Cl)C(=O)C1=O`, for which the IC50 is 100 nM.
Turning to `Cc1ncccc1N1CCN(Cc2ccc(F)cc2Cl)C(=O)C1=O`, the half-maximal inhibitory concentration (IC50) was 631 nM.
For the compound `Cc1ccccc1N1CCN(C(=O)c2cccc(C(F)(F)F)c2Cl)CC1=O`, the IC50 is 10 nM.
Turning to `O=C(c1cccc(Cl)c1Cl)N1CCN(c2cccc(Cl)c2)C(=O)C1`, the half-maximal inhibitory concentration (IC50) was 100 nM.
Regarding `Cc1cccnc1N1CCN(Cc2ccc(F)cc2Cl)C(=O)C1=O`, the 50% inhibitory concentration (IC50) was 631 nM.
With `CN1C(=O)N(c2ncccn2)C[C@H]1C(=O)NCc1ccc(Cl)cc1Cl` the figure was 6.31 nM; with `CN1C(=O)N(c2ncccn2)C[C@H]1C(=O)NCc1ccc(F)cc1Cl`, 25.1 nM; with `CN1C(=O)N(c2ncccn2)C[C@H]1C(=O)NCc1ccc(F)c(F)c1Cl`, 7.94 nM.
In the case of `O=C1C(=O)N(c2ccccc2N2CCCCC2)CCN1Cc1ccc(F)cc1Cl`, the IC50 is 50.1 nM.
For `O=C(c1cccc(Cl)c1Cl)N1CCN(c2ccc(Cl)cc2)C(=O)C1`, the concentration for half-maximal inhibition (IC50) was 126 nM.
As for `Cc1c(Cl)cccc1CNC(=O)[C@@H]1CN(c2ncccn2)C(=O)N1C`, the IC50 is 7.94 nM.
For `Cc1c(OCCN2CCOCC2)cccc1N1CCN(Cc2ccc(F)cc2Cl)C(=O)C1=O`, the half-maximal inhibitory concentration (IC50) is 100 nM.
For the compound `CN1C(=O)NC[C@H]1C(=O)NCc1ccc(F)c(F)c1Cl`, the concentration for half-maximal inhibition (IC50) was 20 nM.
Regarding `Cc1c(N2CCOCC2)cccc1N1CCN(Cc2ccc(F)cc2Cl)C(=O)C1=O`, the IC50 is 31.6 nM.
For the compound `Cc1ccc(N2CCOCC2)c(N2CCN(Cc3ccc(F)cc3Cl)C(=O)C2=O)c1`, the IC50 was 50.1 nM.
With `Cc1cccnc1N1C[C@@H](C(=O)NCc2cccc(C(F)(F)F)c2Cl)N(C)C1=O` the figure was 5.01 nM; with `Cc1cccnc1N1C[C@@H](C(=O)NCc2ccc(Cl)cc2Cl)N(C)C1=O`, 15.8 nM; with `Cc1cccnc1N1C[C@@H](C(=O)NCc2ccc(F)c(F)c2Cl)N(C)C1=O`, 25.1 nM.
Turning to `O=C1C(=O)N(c2ccccc2N2CCCC2)CCN1Cc1ccc(F)cc1Cl`, the IC50 is 39.8 nM.
